Experimental data: PubChem BioAssay AID504901 (Southern Research Specialized Biocontainment Screening …, 2011)
Where “and” joins values, the source holds several entries; their conditions need not be identical. Equal entries are not always repeated. Calls of active or inactive are those of the source. How the calls were made is not given here.

What was measured:
[1] = tested on: Mycobacterium tuberculosis H37Rv growth inhibition, no glycerol; assay: Confirmatory growth inhibition assay, Mycobacterium tuberculosis H37Rv, absence of glycerol (AID 504901); conditions: for IC50: measured here: IC50 of growth inhibition
[2] = as above; conditions: Mycobacterium tuberculosis H37Rv growth inhibition, no glycerol; at 50 µM (top of the series)

Row | SMILES | IC90 [1] | IC50 [1] [nM] | inhibition [2]
1 | Cc1cccc(-c2oc3ccc(-c4ccc5c(c4)OCO5)cc3c2C#Cc2cncn2C)c1 | 2960 nM | 2360 | –
2 | O=C(CSc1nc2ccccc2c(=O)[nH]1)N1CCOCC1 | – | – | 0.57% (inactive)
3 | COc1cccc(NC(=O)CSc2nc3c(c(=O)[nH]2)CCC3)c1 | – | – | 4.58% (inactive)
4 | COC(=O)C(C)Oc1ccc(Cc2ncc(C(F)(F)F)cc2Cl)cc1 (stereo not given) | 5610 nM | 3950 | –
5 | Nc1c(C(=O)NC2CCCCC2)nsc1C(=O)OCC(=O)NC1CCCCC1 | 6830 nM | 4100 | –
6 | CC(C)CNC(=O)CSc1nc2ccccc2c(=O)[nH]1 | 790 nM | 410 | –
7 | COc1ccc(NC(=O)CSc2nc3ccccc3c(=O)[nH]2)cc1 | – | – | -9.6% (inactive)
8 | Cc1nc(SCc2ccccc2Cl)[nH]c(=O)c1C | – | – | -13.7% (inactive)
9 | Cn1c(SCC(=O)NC2CCCCC2)nc2ccccc2c1=O | – | – | -9.98% (inactive)
10 | O=c1[nH]c(SCc2ccccc2Cl)nc2c1CCCC2 | – | – | -5.59% (inactive)
11 | COC(=O)c1ccc(CNc2c(N3CCCC3)c(=O)c2=O)cc1 | – | – | -8.74% (inactive)
12 | Cc1nc(SCC(N)=O)[nH]c(=O)c1C | – | – | -0.93% (inactive)
13 | Cc1cc(=O)[nH]c(=S)[nH]1 | – | – | -7.95% (inactive)
14 | CN[C@@H]1[C@H](O[C@H]2[C@H](O[C@H]3[C@H](O)[C@@H](O)[C@H](N=C(N)N)[C@@H](O)[C@@H]3N=C(N)N)O[C@@H](C)[C@]2(O)C=O)O[C@@H](CO)[C@H](O)[C@H]1O | 220 nM | 150 | –
15 | O=C(CSc1nccc(=O)[nH]1)NC1CCCCC1 | – | – | -0.32% (inactive)
16 | O=C(CSc1ncccn1)NC1CCCCC1 | – | – | -1.46% (inactive)
17 | COc1c(N2CCNC(C)C2)c(F)cc2c(=O)c(C(=O)O)cn(C3CC3)c12 (stereo not given) | – | 140 | –
18 | CC(C)NC(=O)CSc1nc2ccccc2c(=O)[nH]1 | 14600 nM | 9570 | –
19 | COc1cccc(NC(=O)CSc2nc3ccccc3c(=O)[nH]2)c1 | – | – | -14.5% (inactive)
20 | CN1CCC(NC(=O)CSc2nc3ccccc3c(=O)[nH]2)CC1 | – | – | -11.8% (inactive)
21 | CC(Sc1nc2ccccc2c(=O)[nH]1)C(=O)NC1CCCCC1 (stereo not given) | – | – | -6.09% (inactive)
22 | NC[C@H]1O[C@H](O[C@H]2[C@H](O)[C@@H](O[C@H]3O[C@H](CO)[C@@H](O)[C@H](N)[C@H]3O)[C@H](N)C[C@@H]2N)[C@H](O)[C@@H](O)[C@@H]1O | 2470 nM | 2010 | –
23 | NC(=O)CSc1nc2ccccc2c(=O)[nH]1 | – | – | -10.9% (inactive)

Row | SMILES | IC90 [1] | IC50 [1] [nM] | inhibition [2]
24 | CN(C)C(=O)CSc1nc2ccccc2c(=O)[nH]1 | – | – | -6.71% (inactive)
25 | Cc1cccc(/C=C/C(=O)c2ccc([N+](=O)[O-])o2)c1 | 2060 nM | 1360 | –
26 | O=C(CSc1ccccn1)NC1CCCCC1 | – | – | 3.21% (inactive)
27 | Cc1cc(=O)[nH]c(SCC(=O)NC2CCCCC2)n1 | – | – | -0.58% (inactive)
28 | CCOc1ccc(-c2cc(C)[n+](CCc3ccc(OC)c(OC)c3)c(-c3ccc(OCC)cc3)c2)cc1 | 1120 nM | 710 | –
29 | O=c1[nH]c(=S)[nH]c2ccccc12 | – | – | -9.52% (inactive)
30 | Cc1c[nH]c(=S)[nH]c1=O | – | – | -2.94% (inactive)
31 | CCC(Sc1nc2ccccc2c(=O)[nH]1)C(=O)Nc1cccc(OC)c1 (stereo not given) | – | – | -3.07% (inactive)
32 | CCOC1OC(=O)C(Cl)=C1Nc1ccccc1C (stereo not given) | 5870 nM | 3110 | –
33 | CC(C)CCNC(=O)CSc1nc2c(c(=O)[nH]1)CCC2 | 1720 nM | 1400 | –
34 | CC[N+](C)(CC)CCCCOc1ccc2c(c1)C(=O)c1cc(OCCCC[N+](C)(CC)CC)ccc1-2 | – | 1900 | –
35 | CC1CCN(C(=O)C2CCN(c3nnc(-n4cccc4)s3)CC2)CC1 | 6400 nM | 3290 | –
36 | Cc1nc(SCC(=O)NC2CCCCC2)[nH]c(=O)c1C | 3780 nM | 650 | –
37 | CC(C)CCNC(=O)CSc1nc2ccccc2c(=O)[nH]1 | 500 nM | < 140 | –
38 | CNC(=O)CSc1nc2ccccc2c(=O)[nH]1 | – | – | 11.7% (inactive)
39 | CCCc1cc(C(N)=S)ccn1 | 50000 nM | 8840 | –
40 | CC1CCN(C(=O)CSc2nc3ccccc3c(=O)[nH]2)CC1 | – | – | -4.55% (inactive)
41 | O=C(CSc1nc2c(c(=O)[nH]1)CCCC2)NC1CCCCC1 | 160 nM | 90 | –
42 | O=C(CSc1nc2ccccc2c(=O)[nH]1)NC1CCCC1 | 500 nM | 330 | –
43 | Cc1ccc(C(=O)N/N=C(/CC(=O)c2cccs2)C(F)(F)F)cc1 | 3580 nM | 2560 | –
44 | Cc1nc(SCC(=O)NC2CCCC2)[nH]c(=O)c1C | 13800 nM | 9690 | –
45 | O=C(CSc1nc2ccccc2c(=O)[nH]1)NC1CCCCC1 | 510 nM and 80 nM | – | –
46 | CC(C)N=c1cc2n(-c3ccc(Cl)cc3)c3ccccc3nc-2cc1Nc1ccc(Cl)cc1 | – | > 140 | –

Row | SMILES | IC90 [1] | IC50 [1] [nM] | inhibition [2]
47 | CCCCNC(=O)CSc1nc2ccccc2c(=O)[nH]1 | 1060 nM | 320 | –
48 | NC(=O)c1cnccn1 | – | – | 1.71% (inactive)
49 | CN(C(=O)CSc1nc2ccccc2c(=O)[nH]1)C1CCCCC1 | – | – | -7.16% (inactive)
50 | CCC(Sc1nc2ccccc2c(=O)[nH]1)C(=O)NC1CCCCC1 (stereo not given) | – | – | -7.27% (inactive)
51 | Cc1cc(Br)ccc1NC(=O)c1cnc(N2CCN(c3ccccn3)CC2)c2ccccc12 | 50000 nM | 3420 | –
52 | Cc1cc(C)n2nc(N)c(N=Nc3ccccc3)c2n1 | 5960 nM | 4550 | –
53 | Cc1ccc(NC(=O)CSc2nc3ccccc3c(=O)[nH]2)cc1Cl | – | – | -3.41% (inactive)
54 | Cc1cnc(SCC(=O)NC2CCCCC2)[nH]c1=O | – | – | -9.54% (inactive)
55 | Cc1[nH]c2ccccc2c1C(=O)COC(=O)c1ccc([N+](=O)[O-])s1 | 27600 nM | 26400 | –
56 | Nc1cc(=O)[nH]c(SCC(=O)NC2CCCCC2)n1 | – | – | -6.39% (inactive)
57 | O=C(CSc1nc2ccccc2c(=O)[nH]1)NCc1ccc(Cl)cc1 | 1470 nM | 1030 | –
58 | CCC(Sc1nc2c(c(=O)[nH]1)CCC2)C(=O)Nc1cccc(OC)c1 (stereo not given) | – | – | 3.19% (inactive)
59 | Cc1[nH]c(=S)[nH]c(=O)c1C | – | – | 3.12% (inactive)
60 | Cc1ccc(NC(=O)COC(=O)CCc2c[nH]c3ccccc23)cc1[N+](=O)[O-] | 7750 nM | 2730 | –
61 | CCSc1nc(C)c(C)c(=O)[nH]1 | – | – | -2.72% (inactive)
62 | O=C(CSc1nc2c(c(=O)[nH]1)CCC2)NC1CCCCC1 | < 110 nM | < 70 | –
63 | Cc1nc(SCC(=O)NCCC(C)C)[nH]c(=O)c1C | 12800 nM | 8990 | –
64 | Cc1nc(SCC(=O)N(C)c2ccccc2)[nH]c(=O)c1C | – | – | -3.18% (inactive)
65 | COC(=O)C(Nc1nc(SCC(=O)NC2CCCCC2)nc2ccccc12)c1ccccc1 (stereo not given) | – | – | -3.62% (inactive)
66 | CO[C@H]1/C=C/O[C@@]2(C)Oc3c(C)c(O)c4c(O)c(c(C=NN5CCN(C)CC5)c(O)c4c3C2=O)NC(=O)/C(C)=C\C=C\[C@H](C)[C@H](O)[C@@H](C)[C@@H](O)[C@@H](C)[C@H](OC(C)=O)[C@@H]1C | – | 10 | –
67 | CCOC(=O)CSc1nc(C)c(C)c(=O)[nH]1 | – | – | -7.41% (inactive)
68 | CCSc1nc2ccccc2c(=O)[nH]1 | – | – | 1.1% (inactive)
